Measurements from the NIST ThermoML archive (doi:10.1016/j.fluid.2019.06.022).
“And” between values parts separate entries of the source, which are not always exact repeats. Identical values can stand only once.

Test: xn = mol fraction of the nth substance listed
Conditions: Liquid; for mass density: Bellows volumetry; for viscosity: Falling or rolling sphere viscometry

C=C [ethene] + Cc1ccccc1
Conditions | mass density, x1 = 0.1131 [kg/m3] | mass density, x1 = 0.3241 | viscosity, x1 = 0.1131 | viscosity, x1 = 0.3241
295.4 K, 2700 kPa | 815.8 | – | 0.474 mPa·s | –
295.4 K, 2800 kPa | 815.8 | – | 0.474 mPa·s | –
295.4 K, 11400 kPa | 823.1 | – | 0.508 mPa·s | –
295.4 K, 11500 kPa | 823.1 | – | 0.509 mPa·s | –
295.4 K, 20400 kPa | 829.9 | – | 0.551 mPa·s | –
295.4 K, 20500 kPa | 829.9 | – | 0.548 mPa·s | –
295.4 K, 36200 kPa | 840.8 | – | 0.614 mPa·s and 0.615 mPa·s | –
298 K, 3400 kPa | – | 754.7 kg/m3 | – | 0.309 mPa·s
298 K, 3700 kPa | – | 754.7 kg/m3 | – | 0.312 mPa·s
298 K, 10000 kPa | – | 767.2 kg/m3 | – | 0.328 mPa·s and 0.332 mPa·s
298 K, 22000 kPa | – | 778.9 kg/m3 | – | 0.36 mPa·s and 0.364 mPa·s
298 K, 22300 kPa | – | 778.9 kg/m3 | – | 0.362 mPa·s
298 K, 22400 kPa | – | 778.9 kg/m3 | – | 0.366 mPa·s
298 K, 35100 kPa | – | 789.8 kg/m3 | – | 0.402 mPa·s and 0.398 mPa·s
298 K, 48000 kPa | – | 799.7 kg/m3 | – | 0.434 mPa·s and 0.439 mPa·s
298 K, 68400 kPa | – | 813.3 kg/m3 | – | 0.496 mPa·s
298 K, 68500 kPa | – | 813.3 kg/m3 | – | 0.5 mPa·s
322.1 K, 4200 kPa | 792.1 | – | 0.36 mPa·s and 0.361 mPa·s | –
322.1 K, 10200 kPa | 798.1 | – | 0.376 mPa·s and 0.377 mPa·s | –
322.1 K, 21200 kPa | 808 | – | 0.415 mPa·s | –
322.1 K, 34400 kPa | 819.1 | – | 0.442 mPa·s | –
322.1 K, 34500 kPa | 819.1 | – | 0.452 mPa·s | –
322.1 K, 48100 kPa | 828.1 | – | 0.495 mPa·s | –
322.1 K, 48200 kPa | 828.5 | – | 0.498 mPa·s and 0.497 mPa·s | –
322.1 K, 65900 kPa | 840 | – | 0.556 mPa·s and 0.55 mPa·s | –
322.2 K, 7200 kPa | – | 739.3 kg/m3 | – | 0.25 mPa·s and 0.253 mPa·s
322.2 K, 14700 kPa | – | 748.2 kg/m3 | – | 0.268 mPa·s and 0.27 mPa·s
322.2 K, 21700 kPa | – | 756.1 kg/m3 | – | 0.288 mPa·s
322.2 K, 21800 kPa | – | 756.1 kg/m3 | – | 0.283 mPa·s
322.2 K, 34300 kPa | – | 768.4 kg/m3 | – | 0.313 mPa·s
322.2 K, 34500 kPa | – | 768.4 kg/m3 | – | 0.317 mPa·s
322.2 K, 48300 kPa | – | 780.5 kg/m3 | – | 0.344 mPa·s and 0.348 mPa·s
322.2 K, 68800 kPa | – | 795.9 kg/m3 and 795.8 kg/m3 | – | 0.391 mPa·s and 0.397 mPa·s
368.1 K, 6800 kPa | – | 692.1 kg/m3 | – | 0.171 mPa·s and 0.169 mPa·s
368.1 K, 13800 kPa | – | 704 kg/m3 | – | 0.182 mPa·s
368.1 K, 13900 kPa | – | 704 kg/m3 | – | 0.185 mPa·s
368.1 K, 26500 kPa | – | 721.7 kg/m3 and 720.9 kg/m3 | – | 0.205 mPa·s and 0.208 mPa·s
368.1 K, 26600 kPa | – | 720.8 kg/m3 and 721.6 kg/m3 | – | 0.207 mPa·s and 0.208 mPa·s
368.1 K, 41800 kPa | – | 736.7 kg/m3 | – | 0.234 mPa·s
368.1 K, 42100 kPa | – | 736.7 kg/m3 | – | 0.235 mPa·s
368.1 K, 54100 kPa | – | 749.3 kg/m3 | – | 0.254 mPa·s and 0.255 mPa·s
368.1 K, 54300 kPa | – | 749.3 kg/m3 | – | 0.253 mPa·s and 0.256 mPa·s
368.1 K, 68200 kPa | – | 761.9 kg/m3 | – | 0.278 mPa·s and 0.279 mPa·s
369.3 K, 4200 kPa | 748.1 | – | 0.235 mPa·s | –
369.3 K, 4300 kPa | 748.1 | – | 0.236 mPa·s | –
369.3 K, 10200 kPa | 755.4 | – | 0.251 mPa·s | –
369.3 K, 10300 kPa | 755.4 | – | 0.25 mPa·s | –
369.3 K, 20700 kPa | 767.5 | – | 0.273 mPa·s | –
369.3 K, 20800 kPa | 767.5 | – | 0.273 mPa·s | –
369.3 K, 34800 kPa | 781.7 | – | 0.305 mPa·s and 0.304 mPa·s | –
369.3 K, 48700 kPa | 794.3 | – | 0.335 mPa·s | –
369.3 K, 48800 kPa | 794.3 | – | 0.335 mPa·s | –
369.3 K, 68400 kPa | 809.5 | – | 0.382 mPa·s | –
369.3 K, 68500 kPa | 809.5 | – | 0.379 mPa·s | –
435.9 K, 15500 kPa | – | 638 kg/m3 | – | 0.126 mPa·s
435.9 K, 15900 kPa | – | 637.9 kg/m3 | – | 0.126 mPa·s
435.9 K, 27600 kPa | – | 662 kg/m3 | – | 0.146 mPa·s
435.9 K, 27700 kPa | – | 662 kg/m3 | – | 0.144 mPa·s
435.9 K, 41800 kPa | – | 685.4 kg/m3 | – | 0.165 mPa·s
435.9 K, 42000 kPa | – | 685.3 kg/m3 and 685.5 kg/m3 | – | 0.168 mPa·s and 0.164 mPa·s
435.9 K, 42200 kPa | – | 685.4 kg/m3 | – | 0.166 mPa·s
435.9 K, 56000 kPa | – | 703.4 kg/m3 | – | 0.192 mPa·s
435.9 K, 56200 kPa | – | 703.4 kg/m3 | – | 0.188 mPa·s
435.9 K, 68400 kPa | – | 716.8 kg/m3 | – | 0.202 mPa·s
435.9 K, 68500 kPa | – | 716.8 kg/m3 | – | 0.199 mPa·s
437 K, 3900 kPa | 678.2 | – | 0.155 mPa·s | –
437 K, 4200 kPa | 678.2 | – | 0.153 mPa·s | –
437 K, 13700 kPa | 699 | – | 0.173 mPa·s | –
437 K, 14100 kPa | 699.1 | – | 0.172 mPa·s | –
437 K, 27600 kPa | 721 | – | 0.196 mPa·s | –
437 K, 27800 kPa | 721 | – | 0.197 mPa·s | –
437 K, 41400 kPa | 738.3 | – | 0.22 mPa·s | –
437 K, 41500 kPa | 738.3 | – | 0.22 mPa·s | –
437 K, 42400 kPa | 740 | – | 0.222 mPa·s | –
437 K, 42700 kPa | 740 | – | 0.224 mPa·s | –
437 K, 54200 kPa | 750.9 | – | 0.242 mPa·s | –
437 K, 54300 kPa | 750.9 | – | 0.243 mPa·s | –
437 K, 67900 kPa | 763.9 | – | 0.264 mPa·s | –
522 K, 23100 kPa | – | 555.7 kg/m3 | – | 0.097 mPa·s
522 K, 23200 kPa | – | 555.5 kg/m3 | – | 0.095 mPa·s
522 K, 29400 kPa | – | 574.4 kg/m3 and 574.7 kg/m3 and 574.6 kg/m3 | – | 0.102 mPa·s and 0.104 mPa·s
522 K, 29500 kPa | – | 574.4 kg/m3 | – | 0.103 mPa·s
522 K, 38300 kPa | – | 597 kg/m3 [middle of 4 runs] | – | 0.114 mPa·s [middle of 4 runs]
522 K, 50700 kPa | – | 621.2 kg/m3 and 620.9 kg/m3 | – | 0.125 mPa·s and 0.126 mPa·s
522 K, 50800 kPa | – | 621.2 kg/m3 | – | 0.125 mPa·s
522 K, 50900 kPa | – | 621.2 kg/m3 | – | 0.123 mPa·s
522 K, 68400 kPa | – | 645.9 kg/m3 | – | 0.144 mPa·s
522 K, 68700 kPa | – | 646 kg/m3 | – | 0.142 mPa·s
522.7 K, 9400 kPa | 581.8 | – | 0.101 mPa·s | –
522.7 K, 9800 kPa | 581.8 | – | 0.103 mPa·s | –
522.7 K, 31600 kPa | 643.4 | – | 0.137 mPa·s | –
522.7 K, 32000 kPa | 643.4 | – | 0.131 mPa·s | –
522.7 K, 32200 kPa | 643.5 | – | 0.132 mPa·s | –
522.7 K, 41200 kPa | 659.4 | – | 0.15 mPa·s | –
522.7 K, 41700 kPa | 659.4 | – | 0.145 mPa·s | –
522.7 K, 56200 kPa | 679.5 | – | 0.167 mPa·s | –
522.7 K, 56300 kPa | 679.4 | – | 0.162 mPa·s | –
522.7 K, 67600 kPa | 693.8 | – | 0.179 mPa·s | –
522.7 K, 68100 kPa | 693.8 | – | 0.177 mPa·s | –
